Measured values taken from publication PMC11960843, “Exploration of the tunability of BRD4 degradation by DCAF16 trans-labelling covalent glues” (European journal of medicinal chemistry, 2024).
pIC50: −log10 of the molar value.

Assays:
[1] = molecular target: T1, BRD4 (Homo sapiens, UniProt O60885); test: Washout experiment, Western blot of BRD4 degradation in K562 cells; type: cell-based; parameters: an 11 amino acid peptide knock-in tag to a protein-of-interest using CRISPR insertion; endogenous in cells; conditions: K562, 1 μM, 4 h treatment, washout, 20 h compound-free vs 24 h no washout
Protocol: This experiment involves cell treatment and incubation with a ‘covalent’ compound, followed by a wash-step where the cells are washed and resuspended in compound-free cell media.
Cells were washed with PBS and lysed in RIPA lysis buffer (Thermo Fisher Scientific) with Halt Protease Inhibitor Cocktail (Thermo Fisher Scientific) and Benzonase (Sigma-Aldrich) for 20 min on ice. […] Membranes were blocked in Intercept (PBS) Blocking Buffer (LI-COR Biosciences) and incubated with primary antibodies overnight at 4 °C. The membranes were then washed in Tris-buffered saline with Tween-20 (TBS-T), incubated for 1 h with secondary IRDye-conjugated antibodies (LI-COR Biosciences) and washed three times in TBS-T for 5 min before near-infrared western blot detection on an Odyssey Imaging System (LI-COR Biosciences).

[2] = molecular target: BRD4BD2 (Homo sapiens, UniProt O60885); test: BRD4BD2-eGFP and mCherry flow reporter degradation assay, wild type K562 cells
Description: This assay involves the co-expression of mCherry with BRD4BD1/2 fused to an enhanced green fluorescent protein (eGFP) tag, and the subsequent fluorescence measurement of BRD4BD1/2-eGFP normalized to mCherry as a readout for BRD4BD1/2 degradation. It allows for a quantitative, rapid, and facile screening of several MGDs, in a dose-and time-dependent manner. […] Thus, the BRD4BD2 stability system was used to test all subsequent GNE011 analogs in wild type and DCAF16−/− cells.
One day after infection, reporter cells were selected with puromycin at a concentration of 2 μg/mL.
K562 cells stably expressing degradation reporter were dosed with DMSO or degraders at various times and concentrations using D300e Digital Dispenser (HP). The fluorescent signal was quantified by flow cytometry (LSRFortessa flow cytometer, BD Biosciences) and analyzed using FlowJo (flow cytometry analysis software, BD Biosciences). The geometric mean of the eGFP and mCherry fluorescent signal for round and mCherry-positive cells was calculated. GFP expression was normalized to mCherry signal and drug treatments were compared to DMSO controls.

[3] = molecular target: T2, BRD4BD2-DCAF16 ternary complex (Homo sapiens, UniProt O60885+Q9NXF7); test: DDB1-DCAF16-BRD4BD2 TR-FRET ternary complex formation assay; type: biochemical
T2 construct: E3 ligase to bromodomain 2 (BRD4BD2); His6 (N); StrepII (N); Avi (N); made in house; host or cells: BRD4BD2: E. coli (pET100/D-TOPO)
Description: To determine the relationship between covalent warheads and DCAF16 recruitment to BRD4BD2, we used a time-resolved fluorescence energy transfer (TR-FRET) assay to measure induced BRD4BD2-DCAF16 ternary complex formation (Fig. 3A).
Furthermore, we wanted to determine the kinetics of the BRD4BD2-DCAF16 interaction given its covalent nature. […] Additionally, to understand the relationship between ternary complex formation kinetics and warhead reactivity we measured the depletion of the covalent analogs in the presence of glutathione using MS (Table S2). […] Titrations of compounds to induce the DCAF16-BRD4BD complex were carried out by mixing 100 nM biotinylated BRD4BD2, 500 nM BODIPY-FL labeled DDB1ΔB-DCAF16 variants, and 2 nM terbium-coupled streptavidin (Invitrogen) in an assay buffer containing 50 mM HEPES pH 8.0, 200 mM NaCl, 0.1% Pluronic F-68 solution (Sigma), 0.5% bovine serum albumin (BSA) (w/v) and 1 mM TCEP. […] The TR-FRET signal of each data point was extracted by calculating the 520/490 nm ratio.

[4] = GSH stability (glutathione reactivity) assay by LC-MS/MS; type: physicochemical; conditions: phosphate buffered saline (PBS) without glutathione, extrapolated from 240 min assay
[5] = molecular target: T1, BRD4; test: BRD4-HiBiT assay, WT JURKAT cells; type: cell-based; parameters: an 11 amino acid peptide knock-in tag to a protein-of-interest using CRISPR insertion; endogenous in cells; host or cells: JURKAT, HiBiT-edited (wild type or DCAF16 knockout); conditions: 6 h
Protocol: (§1) Thereafter, we sought to characterize the BRD4 cellular degradation potencies in a dose-dependent manner at a shorter time point to minimize secondary effects. This was performed using the bioluminescent HiBiT-BRD4 assay, which consists of an 11 amino acid peptide knock-in tag to a protein-of-interest using CRISPR insertion. A complementary polypeptide (LgBiT) detects and interacts with all HiBiT tagged proteins, thereby reconstituting a luminescent NanoBiT enzyme, that can be quantified by its bioluminescence. WT and DCAF16 KO JURKAT cell lines expressing the BRD4-HiBiT system were generated to quantify dose-dependent BRD4 degradation after 6 h incubation (Fig. 4C).
(§2) After 6 h, the plates were subjected to Nano-Glo HiBiT Lytic detection system (Promega, #N3040) as described in manufacturer's manual. The assays were performed in biological triplicate. DC50 values were determined using a non-linear regression curve fit in GraphPad PRISM 9.5.1.

[6] = molecular target: BRD4BD1 (Homo sapiens, UniProt O60885); test: BRD4 AlphaScreen competition assay (JQ1-biotin displacement), BRD4BD1; type: binding; conditions: read-out: IC50 BRD4BD1
[7] = system: glutathione; test: GSH stability (glutathione reactivity) assay by LC-MS/MS; type: physicochemical; conditions: PBS containing 5 mM reduced glutathione; PBS + 5 mM GSH; extrapolated from 240 min assay
Description: Furthermore, we wanted to determine the kinetics of the BRD4BD2-DCAF16 interaction given its covalent nature. […] Additionally, to understand the relationship between ternary complex formation kinetics and warhead reactivity we measured the depletion of the covalent analogs in the presence of glutathione using MS (Table S2). […].

[8] = molecular target: T1, BRD4; test: Western blot of BRD4 degradation, DCAF16 KO K562 cells; type: cell-based; parameters: an 11 amino acid peptide knock-in tag to a protein-of-interest using CRISPR insertion; endogenous in cells; conditions: DCAF16 KO K562, 1 μM, 16 h
Protocol: (§3) Western blotting was used to determine the degradation potencies of the covalent BRD4 degraders.
(§4) Cells were washed with PBS and lysed in RIPA lysis buffer (Thermo Fisher Scientific) with Halt Protease Inhibitor Cocktail (Thermo Fisher Scientific) and Benzonase (Sigma-Aldrich) for 20 min on ice. The insoluble fraction was removed by centrifugation, the protein concentration was quantified using a BCA protein assay kit (Thermo Fisher Scientific), and an equal amount of lysate was run on SDS–PAGE 4–12% Bis–Tris Protein Gels (Thermo Fisher Scientific) and then transferred to nitrocellulose membrane with a XCell II Blot Module Wet Tank Transfer System (Thermo Fisher Scientific). Membranes were blocked in Intercept (PBS) Blocking Buffer (LI-COR Biosciences) and incubated with primary antibodies overnight at 4 °C. The membranes were then washed in Tris-buffered saline with Tween-20 (TBS-T), incubated for 1 h with secondary IRDye-conjugated antibodies (LI-COR Biosciences) and washed three times in TBS-T for 5 min before near-infrared western blot detection on an Odyssey Imaging System (LI-COR Biosciences).

[9] = molecular target: T1, BRD4; test: Western blot of BRD4 degradation, wild-type K562 cells; type: cell-based; parameters: an 11 amino acid peptide knock-in tag to a protein-of-interest using CRISPR insertion; endogenous in cells; conditions: wild-type K562, 1 μM, 16 h
Protocol: as §3, §4

[10] = molecular target: T1, BRD4; test: BRD4-HiBiT assay, DCAF16 KO JURKAT cells; type: cell-based; parameters: an 11 amino acid peptide knock-in tag to a protein-of-interest using CRISPR insertion; endogenous in cells; host or cells: JURKAT, HiBiT-edited (wild type or DCAF16 knockout); conditions: 6 h
Protocol: as §1, §2

T2 sequence (Q9NXF7 whole entry, other chains not shown): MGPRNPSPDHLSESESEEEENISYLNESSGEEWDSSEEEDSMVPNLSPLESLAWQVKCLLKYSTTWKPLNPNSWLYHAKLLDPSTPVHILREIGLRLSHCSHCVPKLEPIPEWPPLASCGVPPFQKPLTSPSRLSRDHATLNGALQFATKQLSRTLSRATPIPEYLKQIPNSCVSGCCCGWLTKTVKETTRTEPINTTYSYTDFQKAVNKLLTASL

Cc1sc2c(c1C)C(c1ccc(C#CC(N)=O)cc1)=N[C@@H](CC(=O)OC(C)(C)C)c1nnc(C)n1-2 [MMH287, tert-butyl (S)-2-(4-(4-(3-amino-3-oxoprop-1-yn-1-yl)phenyl)-2,3,9-trimethyl-6H-thieno[3,2-f][1,2,4]triazolo[4,3-a][1,4]diazepin-6-yl)acetate]
BRD4 degradation after washout compared to no washout (in words) [1]: nearly a complete rescue
Dmax ([2]; K562, read-out: maximal degradation (Dmax/16h) of BRD4BD2, K562 cells, 16 h incubation): 69%
DC50 ([2]; read-out: DC50 of BRD4BD2 degradation, K562 cells, 16 h incubation): 0.051 µM
TR-FRETmax (520 nm/490 nm ratio) ([3]; 6 h degrader incubation): 0.15
BRD4BD2-DCAF16 ternary complex formation / DCAF16 recruitment (in words) ([3]; time-dependent TR-FRET): almost no increase in ternary complex formation
half-life [4]: > 12.5 h
BRD4 degradation (in words) [5]: noticeable BRD4 degradation
pIC50 [6]: 7.89
half-life [7]: 6.33 h
BRD4 degradation by Western blot in DCAF16 KO (in words) [8]: completely rescued by DCAF16 KO
BRD4 degradation by Western blot (in words) [9]: nearly complete BRD4 degradation
BRD4 degradation in DCAF16 KO (in words) [10]: completely rescued by DCAF16 KO
